According to patent US6613747B2, “6-O-carbamoyl ketolide antibacterials” (Ortho-McNeil Pharmaceutical, Inc., priority 2000, dated 2003):
Values after ≈ are worked out from the molar mass of the structure shown.

Legend:
Assay in all cases: MIC, microdilution broth method (NCCLS)
Format in all cases: cell-based
E. coli OC2605 = settings: A: E. coli OC2605, 35° C., 16-20 hours
Outline: (§1)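 MIC is read as growth in drug wells versus untreated growth-control wells after 16-20 hours at 35° C. Drug was serially diluted two-fold in cation-adjusted Mueller-Hinton broth. Turbidity-adjusted cultures gave about 5×10^4 CFU per well.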

E. faecalis ATCC29212 = settings: C: E. faecalis ATCC29212, 35° C., 16-20 hours
Outline: as §1

H. influenzae ATCC49247 = settings: E: H. influenzae ATCC49247, 35° C., 16-20 hours
Outline: as §1

S. aureus ATCC29213 = settings: B: S. aureus ATCC29213, 35° C., 16-20 hours
Outline: as §1

S. pneumoniae ATCC49619 = settings: D: S. pneumoniae ATCC49619, 35° C., 16-20 hours
Outline: as §1

SMILES	MIC (E. coli OC2605) [µg/mL]	MIC (E. faecalis ATCC29212) [µg/mL]	MIC (H. influenzae ATCC49247) [µg/mL]	MIC (S. aureus ATCC29213) [µg/mL]	MIC (S. pneumoniae ATCC49619)
CC[C@H]1OC(=O)[C@H](C)C(=O)[C@H](C)[C@@H](O[C@@H]2O[C@H](C)C[C@H](N(C)C)[C@H]2O)[C@](C)(OC(=O)NC/C=C/c2ccc(-c3ccncn3)cc2)C[C@@H](C)C(=O)[C@H](C)[C@H]2NC(=O)O[C@@]21C [Compound 78]	>16	0.06 (≈ 0.0718 µM)	4 (≈ 4.78 µM)	0.25 (≈ 0.299 µM)	0.03 µg/mL (≈ 0.0359 µM)
CC[C@H]1OC(=O)[C@H](C)C(=O)[C@H](C)[C@@H](O[C@@H]2O[C@H](C)C[C@H](N(C)C)[C@H]2O)[C@](C)(OC(=O)NCc2ccc(-c3ccncn3)cc2)C[C@@H](C)C(=O)[C@H](C)[C@H]2NC(=O)O[C@@]21C [Compound 79]	8 (≈ 9.88 µM)	0.06 (≈ 0.0741 µM)	2 (≈ 2.47 µM)	0.25 (≈ 0.309 µM)	0.03 µg/mL (≈ 0.037 µM)
CC[C@H]1OC(=O)[C@H](C)C(=O)[C@H](C)[C@@H](O[C@@H]2O[C@H](C)C[C@H](N(C)C)[C@H]2O)[C@](C)(OC(=O)NCCCc2ccc(-c3ncccn3)cc2)C[C@@H](C)C(=O)[C@H](C)[C@H]2NC(=O)O[C@@]21C [Compound 80, Carbamic acid, [3-[4-(2-2pyrimidinyl)phenyl]propyl]-, (3aS,4R,7R,9R,10R,11R,13R,15R,15aR)-4-ethyltetradecahydro-3a,7,9,11,13,15-hexamethyl-2,6,8,14-tetraoxo-10-[[3,4,6-trideoxy-3-(dimethylamino)-b-β-xylo-hexopyranosyl]oxy]-2H-oxacyclotetradecino[4,3-d]oxazol-11-yl ester]	>16	0.06 (≈ 0.0716 µM)	4 (≈ 4.77 µM)	0.12 (≈ 0.143 µM)	0.03 µg/mL (≈ 0.0358 µM)
CC[C@H]1OC(=O)[C@H](C)C(=O)[C@H](C)[C@@H](O[C@@H]2O[C@H](C)C[C@H](N(C)C)[C@H]2O)[C@](C)(OC(=O)NCc2ccc(-n3cccn3)c(OC)c2)C[C@@H](C)C(=O)[C@H](C)[C@H]2NC(=O)O[C@@]21C [Compound 81]	>16	0.12 (≈ 0.145 µM)	8 (≈ 9.66 µM)	2 (≈ 2.42 µM)	0.06 µg/mL (≈ 0.0725 µM)
CC[C@H]1OC(=O)[C@H](C)C(=O)[C@H](C)[C@@H](O[C@@H]2O[C@H](C)C[C@H](N(C)C)[C@H]2O)[C@](C)(OC(=O)NCC#Cc2ccc(-n3cccn3)cc2)C[C@@H](C)C(=O)[C@H](C)[C@H]2NC(=O)O[C@@]21C [Compound 82]	>16	0.06 (≈ 0.073 µM)	4 (≈ 4.87 µM)	0.25 (≈ 0.304 µM)	0.03 µg/mL (≈ 0.0365 µM)
CC[C@H]1OC(=O)[C@H](C)C(=O)[C@H](C)[C@@H](O[C@@H]2O[C@H](C)C[C@H](N(C)C)[C@H]2O)[C@](C)(OC(=O)NCc2ccc(Oc3ncccn3)cc2)C[C@@H](C)C(=O)[C@H](C)[C@H]2NC(=O)O[C@@]21C [Compound 83]	>16	0.25 (≈ 0.303 µM)	8 (≈ 9.69 µM)	2 (≈ 2.42 µM)	0.06 µg/mL (≈ 0.0726 µM)
CC[C@H]1OC(=O)[C@H](C)C(=O)[C@H](C)[C@@H](O[C@@H]2O[C@H](C)C[C@H](N(C)C)[C@H]2O)[C@](C)(OC(=O)NC/C=C/c2ccc(-n3cccn3)c(OC)c2)C[C@@H](C)C(=O)[C@H](C)[C@H]2NC(=O)O[C@@]21C [Compound 84]	>16	0.12 (≈ 0.141 µM)	4 (≈ 4.68 µM)	0.25 (≈ 0.293 µM)	0.06 µg/mL (≈ 0.0703 µM)
CC[C@H]1OC(=O)[C@H](C)C(=O)[C@H](C)[C@@H](O[C@@H]2O[C@H](C)C[C@H](N(C)C)[C@H]2O)[C@](C)(OC(=O)N(C)C/C=C/c2ccc(-c3ncccn3)cc2)C[C@@H](C)C(=O)[C@H](C)[C@H]2NC(=O)O[C@@]21C [Compound 85]	>16	0.25 (≈ 0.294 µM)	>16	1 (≈ 1.18 µM)	0.12 µg/mL (≈ 0.141 µM)
CC[C@H]1OC(=O)[C@H](C)C(=O)[C@H](C)[C@@H](O[C@@H]2O[C@H](C)C[C@H](N(C)C)[C@H]2O)[C@](C)(OC(=O)NC/C=C/c2ccc(Oc3ncccn3)cc2)C[C@@H](C)C(=O)[C@H](C)[C@H]2NC(=O)O[C@@]21C [Compound 86]	>16	0.12 (≈ 0.141 µM)	8 (≈ 9.39 µM)	0.5 (≈ 0.587 µM)	0.06 µg/mL (≈ 0.0704 µM)
CC[C@H]1OC(=O)[C@H](C)C(=O)[C@H](C)[C@@H](O[C@@H]2O[C@H](C)C[C@H](N(C)C)[C@H]2O)[C@](C)(OC(=O)NCc2ccc(-c3ncccn3)cc2F)C[C@@H](C)C(=O)[C@H](C)[C@H]2NC(=O)O[C@@]21C [Compound 87]	16 (≈ 19.3 µM)	0.06 (≈ 0.0725 µM)	4 (≈ 4.83 µM)	0.25 (≈ 0.302 µM)	0.03 µg/mL (≈ 0.0362 µM)
CC[C@H]1OC(=O)[C@H](C)C(=O)[C@H](C)[C@@H](O[C@@H]2O[C@H](C)C[C@H](N(C)C)[C@H]2O)[C@](C)(OC(=O)NC/C=C/c2ccc(-c3ncccn3)cc2F)C[C@@H](C)C(=O)[C@H](C)[C@H]2NC(=O)O[C@@]21C [Compound 88]	16 (≈ 18.7 µM)	0.06 (≈ 0.0703 µM)	8 (≈ 9.37 µM)	0.25 (≈ 0.293 µM)	0.06 µg/mL (≈ 0.0703 µM)
CCC1OC(=O)C(C)(F)C(=O)C(C)C(OC2OC(C)CC(N(C)C)C2O)C(C)(OC(=O)NCC=Cc2ccc(-c3ncccn3)cc2)CC(C)C(=O)C(C)C2NC(=O)OC12C (stereo not shown) [Compound 89]	16 (≈ 18.7 µM)	0.25 (≈ 0.293 µM)	8 (≈ 9.37 µM)	0.5 (≈ 0.585 µM)	0.06 µg/mL (≈ 0.0703 µM)
CCC1OC(=O)C(C)(F)C(=O)C(C)C(OC2OC(C)CC(N(C)C)C2O)C(C)(OC(=O)NCC=Cc2ccc3ncccc3c2)CC(C)C(=O)C(C)C2NC(=O)OC12C (stereo not shown) [Compound 90]	8 (≈ 9.67 µM)	0.06 (≈ 0.0726 µM)	4 (≈ 4.84 µM)	0.25 (≈ 0.302 µM)	0.03 µg/mL (≈ 0.0363 µM)
CCC1OC(=O)C(C)(F)C(=O)C(C)C(OC2OC(C)CC(N(C)C)C2O)C(C)(OC(=O)NCC=Cc2ccc(-n3cccn3)cc2)CC(C)C(=O)C(C)C2NC(=O)OC12C (stereo not shown) [Compound 91]	16 (≈ 19 µM)	0.12 (≈ 0.143 µM)	4 (≈ 4.75 µM)	0.25 (≈ 0.297 µM)	0.06 µg/mL (≈ 0.0713 µM)
CC[C@H]1OC(=O)[C@H](C)C(=O)[C@H](C)[C@@H](O[C@@H]2O[C@H](C)C[C@H](N(C)C)[C@H]2O)[C@](C)(OC(=O)NC/C=C/c2cn(-c3ncccn3)cn2)C[C@@H](C)C(=O)[C@H](C)[C@H]2NC(=O)O[C@@]21C [Compound 92]	16 (≈ 19.4 µM)	0.12 (≈ 0.145 µM)	2 (≈ 2.42 µM)	0.25 (≈ 0.303 µM)	0.03 µg/mL (≈ 0.0363 µM)
CC[C@H]1OC(=O)[C@H](C)C(=O)[C@H](C)[C@@H](O[C@@H]2O[C@H](C)C[C@H](N(C)C)[C@H]2O)[C@](C)(OC(=O)NCc2cn(-c3ncccn3)cn2)C[C@@H](C)C(=O)[C@H](C)[C@H]2NC(=O)O[C@@]21C [Compound 93]	16 (≈ 20 µM)	0.06 (≈ 0.075 µM)	1 (≈ 1.25 µM)	0.5 (≈ 0.625 µM)	≦0.015 μg/mL
CC[C@H]1OC(=O)[C@H](C)C(=O)[C@H](C)[C@@H](O[C@@H]2O[C@H](C)C[C@H](N(C)C)[C@H]2OC(C)=O)[C@](C)(OC(=O)NC/C=C/c2ccc(-c3ncccn3)cc2)C[C@@H](C)C(=O)[C@H](C)[C@H]2NC(=O)O[C@@]21C [Compound 94]	>16	0.12 (≈ 0.137 µM)	2 (≈ 2.28 µM)	0.25 (≈ 0.285 µM)	0.06 µg/mL (≈ 0.0683 µM)
CCC1OC(=O)C(C)C(=O)C(C)C(OC2OC(C)CC(N(C)C)C2O)C(C)(OC(=O)NCC=Cc2ccc(-c3cccnn3)cc2)CC(C)C(=O)C(C)C2NC(=O)OC12C (stereo not shown) [Compound 96]	4 (≈ 4.78 µM)	0.12 (≈ 0.144 µM)	1 (≈ 1.2 µM)	0.25 (≈ 0.299 µM)	0.03 µg/mL (≈ 0.0359 µM)
CC[C@H]1OC(=O)[C@H](C)C(=O)[C@H](C)[C@@H](O[C@@H]2O[C@H](C)C[C@H](N(C)C)[C@H]2O)[C@](C)(OC(=O)NCc2ccc(-c3cccnn3)cc2)C[C@@H](C)C(=O)[C@H](C)[C@H]2NC(=O)O[C@@]21C [Compound 97]	16 (≈ 19.8 µM)	0.06 (≈ 0.0741 µM)	2 (≈ 2.47 µM)	0.5 (≈ 0.617 µM)	0.03 µg/mL (≈ 0.037 µM)
CCC1OC(=O)C(C)(O)C(=O)C(C)C(OC2OC(C)CC(N(C)C)C2O)C(C)(OC(=O)NCC=Cc2ccc(-c3cnccn3)cc2)CC(C)C(=O)C(C)C2NC(=O)OC12C (stereo not shown) [Compound 98]	>16	0.25 (≈ 0.293 µM)	4 (≈ 4.69 µM)	0.5 (≈ 0.587 µM)	0.03 µg/mL (≈ 0.0352 µM)
CCC1OC(=O)C(C)(F)C(=O)C(C)C(OC2OC(C)CC(N(C)C)C2O)C(C)(OC(=O)NCC=Cc2ccc(-c3cnccn3)cc2)CC(C)C(=O)C(C)C2NC(=O)OC12C (stereo not shown) [Compound 101]	8 (≈ 9.37 µM)	0.12 (≈ 0.141 µM)	2 (≈ 2.34 µM)	0.25 (≈ 0.293 µM)	0.03 µg/mL (≈ 0.0351 µM)
CC[C@H]1OC(=O)[C@H](C)C(=O)[C@H](C)[C@@H](O[C@@H]2O[C@H](C)C[C@H](N(C)C)[C@H]2O)[C@](C)(OC(=O)NCCOCc2ccc(-c3ncccn3)cc2)C[C@@H](C)C(=O)[C@H](C)[C@H]2NC(=O)O[C@@]21C [Compound 107]	>16	0.12 (≈ 0.141 µM)	4 (≈ 4.68 µM)	0.25 (≈ 0.293 µM)	0.06 µg/mL (≈ 0.0703 µM)
CCC1OC(=O)C(C)(F)C(=O)C(C)C(OC2OC(C)CC(N(C)C)C2O)C(C)(OC(=O)NCCOCc2ccc(-c3ncccn3)cc2)CC(C)C(=O)C(C)C2NC(=O)OC12C (stereo not shown) [Compound 108]	>16	0.25 (≈ 0.287 µM)	4 (≈ 4.59 µM)	0.5 (≈ 0.573 µM)	0.06 µg/mL (≈ 0.0688 µM)
